Measured values: PMC5548886 (Cancer Medicine, 2017)
Where two headings read alike, the source gives them in different places.

Experiments:
Ki-67 = tested on: Ki-67
Description: (§1) Pharmacodynamic markers were examined using peripheral blood samples, tumor and nevi biopsies (when available) and tumor imaging. BRAF mutation status was determined by Sanger sequencing. Pharmacodynamic markers analyzed, in available tumor/nevus samples obtained before treatment or archival tissue and during treatment on cycle 1, day 8 or day 15, including cytoplasmic p‐MEK, p‐ERK, BIM, c‐KIT, p‐AKT473, pS6 and PTEN, and nuclear p‐ERK, Ki‐67, PARP, cyclin D1, MITF, p27, and p53. Biomarker expression was determined by calculating the percentage of change in the H‐score (14) between on‐treatment and fresh/archival pretreatment specimens. Blood levels of VEGFR‐2 and were assessed before and at multiple time points while on treatment using enzyme‐linked immunosorbent assay (ELISA). […] Changes in standard uptake value (SUV) were determined by a blinded, independent central imaging review panel. Complete metabolic response (CMR) was complete resolution of tumor FDG‐PET uptake so SUV is the same as background. Partial metabolic response (PMR) decrease in sum of the tumor SUV of ≥25% from the baseline scan. Progressive metabolic disease (PMD) was defined as an increase in tumor SUV of ≥25% from the baseline scan, or the appearance of new FDG‐PET uptake in metastatic lesions. Stable metabolic disease (SMD) was defined as a change in tumor SUV between the PMR and PMD criteria.

MITF = experiment: IHC of tumor biopsies, H-score change on-treatment vs pretreatment; type: in vivo, human
Description: as §1

p27 = experiment: as above; type: in vivo, human
Description: as §1

cytoplasmic p-ERK = experiment: as above; type: in vivo, human
Description: as §1

c-KIT = experiment: as above; type: in vivo, human
Description: as §1

nuclear p-ERK = experiment: as above; type: in vivo, human
Description: as §1

cyclin D1 = experiment: as above; type: in vivo, human
Description: as §1

cytoplasmic p-MEK = experiment: as above; type: in vivo, human
Description: as §1

p-AKT473 = experiment: as above; type: in vivo, human
Description: as §1

BIM = experiment: as above; type: in vivo, human
Description: as §1

pS6 = experiment: as above; type: in vivo, human
Description: as §1

PARP = experiment: as above; type: in vivo, human
Description: as §1

## Cn1c(Nc2ccc(C(F)(F)F)cc2)nc2cc(Oc3ccnc(-c4ncc(C(F)(F)F)[nH]4)c3)ccc21 [RAF265]
Ki-67; All patients, n 23
  Ki67 % change vs pretreatment, Mean (SD): -13.46 (50) %
  Ki67 % change vs pretreatment, Median: -11.1%
Ki-67; DL 5, n 2
  Ki67 % change vs pretreatment, Mean (SD): 0%
  Ki67 % change vs pretreatment, Median: 0%
Ki-67; DL 6
  Ki67 decrease: up to 51.8%
Ki-67; DL 6, n 6
  Ki67 % change vs pretreatment, Mean (SD): -47.93 (40.8) %
  Ki67 % change vs pretreatment, Median: -51.8%
Ki-67; DLs 1 - 4, n 11
  Ki67 % change vs pretreatment, Mean (SD): +0.21 (59) %
  Ki67 % change vs pretreatment, Median: -11.1%
Ki-67; DLs 7 and 7.1, n 4
  Ki67 % change vs pretreatment, Mean (SD): -6.08 (20) %
  Ki67 % change vs pretreatment, Median: -2.6%
MITF; All patients, n 21
  MITF % change vs pretreatment, Mean(SD): +197.3(856.9) %
  MITF % change vs pretreatment, Median: -13.2%
MITF; DL 5, n 2
  MITF % change vs pretreatment, Mean(SD): +11.8 (23.7) %
  MITF % change vs pretreatment, Median: +11.8%
MITF; DL 6, n 6
  MITF % change vs pretreatment, Mean(SD): +20.1 (111.3) %
  MITF % change vs pretreatment, Median: -6.60%
MITF; DLs 1 - 4, n 9
  MITF % change vs pretreatment, Mean(SD): +400.6(1312.5) %
  MITF % change vs pretreatment, Median: -27.3%
MITF; DLs 7 and 7.1, n 4
  MITF % change vs pretreatment, Mean(SD): +98.6 (239.7) %
  MITF % change vs pretreatment, Median: 0%
p27; All patients, n 20
  P27 % change vs pretreatment, Mean (SD): +86 (251.9) %
  P27 % change vs pretreatment, Median: +5%
p27; DL 5, n 2
  P27 % change vs pretreatment, Mean (SD): -40 (56.6) %
  P27 % change vs pretreatment, Median: -40%
p27; DL 6
  p27 abundance, median increase: 30.4%
p27; DL 6, n 5
  P27 % change vs pretreatment, Mean (SD): +156.4 (312.2) %
  P27 % change vs pretreatment, Median: +30.4%
p27; DL 7/7.1
  p27 abundance, median increase: 72.2%
p27; DLs 1 - 4, n 9
  P27 % change vs pretreatment, Mean (SD): -2.2 (44) %
  P27 % change vs pretreatment, Median: 0%
p27; DLs 7 and 7.1, n 4
  P27 % change vs pretreatment, Mean (SD): +261.1 (427.3) %
  P27 % change vs pretreatment, Median: +72.2%
Cytoplasmic p-ERK; 23 patients
  p-ERK IHC staining, on-treatment versus pretreatment: dose‐dependent p‐ERK inhibition
Cytoplasmic p-ERK; All patients, n 13
  cytoplasmic pERK % change vs pretreatment, Mean (SD): -3.6 (48.6) %
  cytoplasmic pERK % change vs pretreatment, Median: -11.8%
Cytoplasmic p-ERK; DL 5, n 2
  cytoplasmic pERK % change vs pretreatment, Mean (SD): +27.1 (56) %
  cytoplasmic pERK % change vs pretreatment, Median: +27.1%
Cytoplasmic p-ERK; DL 6, n 5
  cytoplasmic pERK % change vs pretreatment, Mean (SD): -27.0 (40.9) %
  cytoplasmic pERK % change vs pretreatment, Median: -50.00%
Cytoplasmic p-ERK; DLs 1 - 4, n 2
  cytoplasmic pERK % change vs pretreatment, Mean (SD): +52.3 (80) %
  cytoplasmic pERK % change vs pretreatment, Median: +52.3%
Cytoplasmic p-ERK; DLs 7 and 7.1, n 4
  cytoplasmic pERK % change vs pretreatment, Mean (SD): -17.8 (11.5) %
  cytoplasmic pERK % change vs pretreatment, Median: -13.5%
Cytoplasmic p-ERK; patients treated at DL1-5
  p-ERK expression change: increase in p‐ERK expression
Cytoplasmic p-ERK; patients treated at DL 6-7.1
  p-ERK abundance change: moderately decreased p‐ERK abundance
c-KIT; All patients, n 8
  CKIT % change vs pretreatment, Median: 0%
c-KIT; DL 6, n 1
  CKIT % change vs pretreatment, Mean (SD): 0%
  CKIT % change vs pretreatment, Median: 0%
c-KIT; DLs 1 - 4, n 4
  CKIT % change vs pretreatment, Mean (SD): -60 (80) %
  CKIT % change vs pretreatment, Median: -100%
c-KIT; DLs 7 and 7.1, n 3
  CKIT % change vs pretreatment, Mean (SD): 0%
  CKIT % change vs pretreatment, Median: 0%
Nuclear p-ERK; All patients, n 21
  nuclear pERK % change vs pretreatment, Mean (SD): -2 (51.6) %
  nuclear pERK % change vs pretreatment, Median: 0%
Nuclear p-ERK; DL 5, n 2
  nuclear pERK % change vs pretreatment, Mean (SD): +18.2 (35.8) %
  nuclear pERK % change vs pretreatment, Median: +18.2%
Nuclear p-ERK; DL 6, n 5
  nuclear pERK % change vs pretreatment, Mean (SD): -41.8 (48) %
  nuclear pERK % change vs pretreatment, Median: -22.2%
Nuclear p-ERK; DLs 1 - 4, n 10
  nuclear pERK % change vs pretreatment, Mean (SD): +21.1 (52.13) %
  nuclear pERK % change vs pretreatment, Median: 0%
Nuclear p-ERK; DLs 7 and 7.1, n 4
  nuclear pERK % change vs pretreatment, Mean (SD): -20.3 (31.3) %
  nuclear pERK % change vs pretreatment, Median: -7.6%
Cyclin D1; All patients, n 23
  Cyclin D1 % change vs pretreatment, Mean (SD): +0.19 (93.7) %
  Cyclin D1 % change vs pretreatment, Median: -25%
Cyclin D1; DL 5, n 3
  Cyclin D1 % change vs pretreatment, Mean (SD): +56.8 (125.6) %
  Cyclin D1 % change vs pretreatment, Median: +5.00%
Cyclin D1; DL 6, n 5
  Cyclin D1 % change vs pretreatment, Mean (SD): -49.12 (30.7) %
  Cyclin D1 % change vs pretreatment, Median: -48.9%
Cyclin D1; DLs 1 - 4, n 10
  Cyclin D1 % change vs pretreatment, Mean (SD): -4.5 (95) %
  Cyclin D1 % change vs pretreatment, Median: -24%
Cyclin D1; DLs 7 and 7.1, n 5
  Cyclin D1 % change vs pretreatment, Mean (SD): +25 (113.6) %
  Cyclin D1 % change vs pretreatment, Median: 0%
Cyclin D1; in vivo
  cyclin D1, median decrease: 25%
Cytoplasmic p-MEK; All patients, n 23
  cytoplasmic pMEK % change vs pretreatment, Mean (SD): -4.3 (32) %
  cytoplasmic pMEK % change vs pretreatment, Median: -9.1%
Cytoplasmic p-MEK; DL 5, n 2
  cytoplasmic pMEK % change vs pretreatment, Mean (SD): 0%
  cytoplasmic pMEK % change vs pretreatment, Median: 0%
Cytoplasmic p-MEK; DL 6, n 6
  cytoplasmic pMEK % change vs pretreatment, Mean (SD): -16.1 (17.3) %
  cytoplasmic pMEK % change vs pretreatment, Median: -15.3%
Cytoplasmic p-MEK; DLs 1 - 4, n 11
  cytoplasmic pMEK % change vs pretreatment, Mean (SD): +0.8 (44.4) %
  cytoplasmic pMEK % change vs pretreatment, Median: -11.1%
Cytoplasmic p-MEK; DLs 7 and 7.1, n 4
  cytoplasmic pMEK % change vs pretreatment, Mean (SD): -2.6 (5.3) %
  cytoplasmic pMEK % change vs pretreatment, Median: 0%
p-AKT473; All patients, n 19
  PAKT473 % change vs pretreatment, Mean (SD): +1.2 (105.4) %
  PAKT473 % change vs pretreatment, Median: -4.6%
p-AKT473; DL 5, n 1
  PAKT473 % change vs pretreatment, Mean (SD): -4.6%
  PAKT473 % change vs pretreatment, Median: -4.6%
p-AKT473; DL 6
  p-AKT, median decrease: 46.7%
p-AKT473; DL 6, n 4
  PAKT473 % change vs pretreatment, Mean (SD): -48.4(55.9) %
  PAKT473 % change vs pretreatment, Median: -46.7%
p-AKT473; DLs 1 - 4, n 11
  PAKT473 % change vs pretreatment, Mean (SD): +20.1(132.9) %
  PAKT473 % change vs pretreatment, Median: -20%
p-AKT473; DLs 7 and 7.1, n 3
  PAKT473 % change vs pretreatment, Mean (SD): 0%
  PAKT473 % change vs pretreatment, Median: 0%
BIM; All patients, n 14
  BIM % change vs pretreatment, Mean (SD): -17.00 (54.5) %
  BIM % change vs pretreatment, Median: 0%
BIM; DL 5, n 1
  BIM % change vs pretreatment, Mean (SD): -100%
  BIM % change vs pretreatment, Median: -100%
BIM; DL 6, n 2
  BIM % change vs pretreatment, Mean (SD): -7.1 (11.1) %
  BIM % change vs pretreatment, Median: -7.1%
BIM; DLs 1 - 4, n 8
  BIM % change vs pretreatment, Mean (SD): -18 (65.1) %
  BIM % change vs pretreatment, Median: -14.3%
BIM; DLs 7 and 7.1, n 3
  BIM % change vs pretreatment, Mean (SD): +6.7 (5.8) %
  BIM % change vs pretreatment, Median: +10%
pS6; All patients, n 19
  PS6 % change vs pretreatment, Mean (SD): +6.9 (70.8) %
  PS6 % change vs pretreatment, Median: -13%
pS6; DL 5, n 1
  PS6 % change vs pretreatment, Mean (SD): +255.6%
  PS6 % change vs pretreatment, Median: +255.6%
pS6; DL 6
  pS6, median decrease: 35.8%
pS6; DL 6, n 6
  PS6 % change vs pretreatment, Mean (SD): -20.6 (29.1) %
  PS6 % change vs pretreatment, Median: -35.8%
pS6; DLs 1 - 4, n 8
  PS6 % change vs pretreatment, Mean (SD): -16.8 (20.9) %
  PS6 % change vs pretreatment, Median: -18.9%
pS6; DLs 7 and 7.1, n 4
  PS6 % change vs pretreatment, Mean (SD): 33.4 (55.7) %
  PS6 % change vs pretreatment, Median: +16.3%
PARP; All patients, n 14
  PARP % change vs pretreatment, Mean (SD): +89.1 (172.3) %
  PARP % change vs pretreatment, Median: +33.3%
PARP; DL 6, n 3
  PARP % change vs pretreatment, Mean (SD): +20.00 (121.2) %
  PARP % change vs pretreatment, Median: 0.00%
PARP; DLs 1 - 4, n 8
  PARP % change vs pretreatment, Mean (SD): +65.1 (180.5) %
  PARP % change vs pretreatment, Median: -20%
PARP; DLs 7 and 7.1, n 3
  PARP % change vs pretreatment, Mean (SD): +222.2 (167.8) %
  PARP % change vs pretreatment, Median: +200.00%
